Measurements: patent US20260364214A1, “MULTIVALENT FIBROBLAST ACTIVATION PROTEIN LIGANDS FOR TARGETED DELIVERY APPLICATIONS” (Philochem AG, priority 2022, published 2026)

Tested on: SK-RC-52.hFAP tumors
Assay: Quantitative biodistribution in SK-RC-52.hFAP tumor bearing mice
Type: in vivo, mouse (female athymic Balb/c AnNRj-Foxn1)
Conditions: i.v. 250 nmol/kg, 50 MBq/kg
Method: SK-RC-52.hFAP were grown to 80% confluence in RPMI-1640 with 10% fetal bovine serum (FBS) and 1% antibiotic-antimycotic and detached with Trypsin-EDTA (ethylenediaminetetraacetic acid) 0.05%. Tumor cells were resuspended in Hanks' Balanced Salt Solution medium. Aliquots of 5 million cells (100 μL of suspension) were injected subcutaneously in the right flank of female athymic Balb/c AnNRj-Foxn1 mice (6 to 8 wk of age).
Radiolabeling of ESV6-DOTAGA, Bi-ESV6-DOTAGA, Tri-ESV6-DOTAGA, Tetra-ESV6-DOTAGA, Hexa-ESV6-DOTAGA, Octa-ESV6-DOTAGA and FAP-2286 with lutetium-177 (a therapeutic radionuclide) was performed with different specific activities for three different studies (biodistribution, therapy and dose optimization).
Prior to the biodistribution study, precursors (100 nmol) were dissolved in 100 μL of milliQ water and diluted with 200 μL of sodium acetate (1 M in water, pH=4.5). 20 MBq of ^177Lu solution were added and the mixture was heated at 90 °C for 10 minutes, followed by dilution with […] of PBS to achieve final volume of 2 mL (20 doses of 100 μL each).
ESV6-DOTAGA, Bi-ESV6-DOTAGA, Tri-ESV6-DOTAGA, Tetra-ESV6-DOTAGA, Hexa-ESV6-DOTAGA, Octa-ESV6-DOTAGA and FAP-2286 were radiolabeled with ^177Lu as described above. Tumors were allowed to grow to an average volume of 300 mm^3. Mice were randomized and injected intravenously with radiolabeled preparations of ^177Lu-ESV6, ^177Lu-Bi-ESV6, ^177Lu-Tri-ESV6, Tetra-ESV6-DOTAGA, Hexa-ESV6-DOTAGA, Octa-ESV6-DOTAGA or ^177Lu-FAP-2286 (250 nmol/kg; 50 MBq/kg). Mice were euthanized at different time-points after the intravenous injection by CO2 asphyxiation. Tumors, organs, and blood were collected, weighted, and radioactivity was measured with a Packard Cobra Gamma Counter. Values are expressed as percent ID/g±SD [FIG. 4]. The % ID/g in the tumors was corrected considering the SK-RC-52.hFAP tumor growth rate.
Quantitative in vivo biodistribution of ^177Lu-ESV6-DOTAGA, ^177Lu-Bi-ESV6-DOTAGA, ^177Lu-Tri-ESV6-DOTAGA, ^177Lu-FAP-2286, Tetra-ESV6-DOTAGA, Hexa-ESV6-DOTAGA and Octa-ESV6-DOTAGA at different time points after intravenous administration (250 nmol/kg, 50 MBq/kg) in mice bearing SK-RC-52.hFAP tumors, are shown in Tables 1 to 4 and 10 to 12. Data are reported as % ID/g±standard deviation.
Tumor-to-organ ratios of ^177Lu-ESV6-DOTAGA, ^177Lu-Bi-ESV6-DOTAGA, ^177Lu-Tri-ESV6-DOTAGA, ^177Lu-FAP-2286, Tetra-ESV6-DOTAGA, Hexa-ESV6-DOTAGA and Octa-ESV6-DOTAGA, at different time points after intravenous administration (250 nmol/kg, 50 MBq/kg) in mice bearing SK-RC-52.hFAP tumors, are shown in Tables 5 to 8 and 13 to 15. Avg.=average; Std.d=standard deviation.

In the case of N#C[C@@H]1CC(F)(F)CN1C(=O)CNC(=O)c1ccnc2c(NC(=O)CCC(=O)NCCNC(=O)CCOCC(COCCC(=O)NCCNC(=O)CCC(=O)Nc3cccc4c(C(=O)NCC(=O)N5CC(F)(F)C[C@H]5C#N)ccnc34)NC(=O)CCOCC(COCCC(=O)NC(COCCC(=O)NCCNC(=O)CCC(=O)Nc3cccc4c(C(=O)NCC(=O)N5CC(F)(F)C[C@H]5C#N)ccnc34)COCCC(=O)NCCNC(=O)CCC(=O)Nc3cccc4c(C(=O)NCC(=O)N5CC(F)(F)C[C@H]5C#N)ccnc34)NC(=O)CCC(C(=O)O)N3CCN(CC(=O)[O-])CCN(CC(=O)[O-])CCN(CC(=O)[O-])CC3)cccc12.[177Lu+3] (stereo partly drawn) [^177Lu-Tetra-ESV6-DOTAGA], the “Tumor to organs ratio, Blood” value (6 h) is reported as 53.01, the “Injected dose per gram, Blood” value (6 h post injection) is reported as 1.16 % ID/g and the “Tumor to organs ratio, Blood” value (24 h) is reported as 146.80. The “Injected dose per gram, Blood” value (24 h post injection) was 0.29 % ID/g, the “Tumor to organs ratio, Blood” value (96 h) was 1062.04 and the “Injected dose per gram, Blood” value (96 h post injection) was 0.01 % ID/g. For the same compound, the “Tumor to organs ratio, Heart” value (6 h) was 114.60, the “Injected dose per gram, Heart” value (6 h post injection) was 0.50 % ID/g and the “Tumor to organs ratio, Heart” value (24 h) was 166.10. For the same compound, the “Injected dose per gram, Heart” value (24 h post injection) was 0.26 % ID/g, the “Tumor to organs ratio, Heart” value (96 h) was 133.14 and the “Injected dose per gram, Heart” value (96 h post injection) was 0.12 % ID/g. For the same compound, the “Tumor to organs ratio, Intestine” value (6 h) was 86.50, the “Injected dose per gram, Intestine” value (6 h post injection) was 0.70 % ID/g and the “Tumor to organs ratio, Intestine” value (24 h) was 284.15. For the same compound, the “Injected dose per gram, Intestine” value (24 h post injection) was 0.15 % ID/g, the “Tumor to organs ratio, Intestine” value (96 h) was 213.10 and the “Injected dose per gram, Intestine” value (96 h post injection) was 0.07 % ID/g. The “Tumor to organs ratio, Kidney” value (6 h) was 27.69, the “Injected dose per gram, Kidney” value (6 h post injection) was 2.10 % ID/g and the “Tumor to organs ratio, Kidney” value (24 h) was 23.62. The “Injected dose per gram, Kidney” value (24 h post injection) was 1.79 % ID/g, the “Tumor to organs ratio, Kidney” value (96 h) was 2.36 and the “Injected dose per gram, Kidney” value (96 h post injection) was 5.77 % ID/g. For the same compound, the “Tumor to organs ratio, Liver” value (6 h) was 15.19, the “Injected dose per gram, Liver” value (6 h post injection) was 3.81 % ID/g and the “Tumor to organs ratio, Liver” value (24 h) was 9.42. The “Injected dose per gram, Liver” value (24 h post injection) was 4.52 % ID/g, the “Tumor to organs ratio, Liver” value (96 h) was 2.07 and the “Injected dose per gram, Liver” value (96 h post injection) was 6.64 % ID/g. For the same compound, the “Tumor to organs ratio, Lung” value (6 h) was 52.76, the “Injected dose per gram, Lung” value (6 h post injection) was 1.09 % ID/g and the “Tumor to organs ratio, Lung” value (24 h) was 138.32. The “Injected dose per gram, Lung” value (24 h post injection) was 0.35 % ID/g, the “Tumor to organs ratio, Lung” value (96 h) was 69.86 and the “Injected dose per gram, Lung” value (96 h post injection) was 0.24 % ID/g. The “Tumor to organs ratio, Muscle” value (6 h) was 61.99, the “Injected dose per gram, Muscle” value (6 h post injection) was 0.94 % ID/g and the “Tumor to organs ratio, Muscle” value (24 h) was 98.07. The “Injected dose per gram, Muscle” value (24 h post injection) was 0.44 % ID/g, the “Tumor to organs ratio, Muscle” value (96 h) was 288.08 and the “Injected dose per gram, Muscle” value (96 h post injection) was 0.06 % ID/g. The “Tumor to organs ratio, Spleen” value (6 h) was 44.00, the “Injected dose per gram, Spleen” value (6 h post injection) was 1.33 % ID/g and the “Tumor to organs ratio, Spleen” value (24 h) was 20.72. The “Injected dose per gram, Spleen” value (24 h post injection) was 2.19 % ID/g, the “Tumor to organs ratio, Spleen” value (96 h) was 3.88 and the “Injected dose per gram, Spleen” value (96 h post injection) was 3.64 % ID/g. The “Tumor to organs ratio, Tail” value (6 h) was 24.06, the “Injected dose per gram, Tail” value (6 h post injection) was 1.85 % ID/g and the “Tumor to organs ratio, Tail” value (24 h) was 36.71. For the same compound, the “Injected dose per gram, Tail” value (24 h post injection) was 1.16 % ID/g, the “Tumor to organs ratio, Tail” value (96 h) was 24.96 and the “Injected dose per gram, Tail” value (96 h post injection) was 0.54 % ID/g. For the same compound, the “Injected dose per gram, Tumor” value (6 h post injection) was 57.25 % ID/g, the “Injected dose per gram, Tumor” value (24 h post injection) was 42.15 % ID/g and the “Injected dose per gram, Tumor” value (96 h post injection) was 13.36 % ID/g.
